From US10117864B2, “Substituted N-bicyclo-2-aryl-quinolin-4-carboxamides and use thereof” (BAYER PHARMA AKTIENGESELLSCHAFT, priority 2015, dated 2018)
Each block holds one compound with its values, some of them ahead of it.

How the values were obtained:
human FP receptor = human FP receptor (Homo sapiens (Human), UniProt P43088); experiment: In vitro test of inhibition of human FP receptor activity (PGF2α-induced calcium flux in FP-expressing CHEM1 cells); type: cell-based; details: PGF2α-induced (3 nM) calcium flux, some as mean values from multiple independent determinations
Text: • CRTH2 chemoattractant receptor-homologous molecule expressed on T helper type 2 cells • DMEM Dulbecco's modified Eagle's medium • DMSO dimethyl sulfoxide • DP PGD2 receptor • EC50 half-maximum effective concentration • Em emission • EP PGE2 receptor • Ex excitation • from Company (source) • FCS fetal calf serum • FP PGF2α receptor • HEPES 2-[4-(2-hydroxyethyl)piperazin-1-yl]ethanesulfonic acid • IC50 half-maximum inhibitory concentration • IP PGI2 receptor • MES 2-(N-morpholino)ethanesulfonic acid • Pen/Strep penicillin/streptomycin • PGD2 prostaglandin D2 • PGE2 prostaglandin E2 • PGF2α prostaglandin F2α • PGI2 prostaglandin I2 • TC tissue culture • TP thromboxane A2 receptor • Tris tris(hydroxymethyl)aminomethane • v/v volume to volume ratio (of a solution) • w/w weight to weight ratio (of a solution) B-1. In Vitro Test of Inhibition of Human FP Receptor Activity
For the characterization of test substances in respect of FP antagonism, PGF2α-induced calcium flux in FP-expressing CHEM1 cells (Millipore, HTS093C) was used.
Prior to the measurement, the medium is replaced by 30 μl of Fluo-8 AM loading buffer [calcium-free Tyrode (130 mM NaCl, 5 mM KCl, 20 mM HEPES, 1 mM MgCl2, 4.8 mM NaHCO3, pH 7.4), 2 mM CaCl2, 1× SmartBlock (from CANDOR Bioscience GmbH), 4.5 mM Probenecid, 5 μM Fluo-8 AM, 0.016% Pluronic®, 0.04% Brilliant black] and incubated at 37° C./5% CO2 for 30 minutes. […] 10 μl of the prediluted substance solution are added to the Fluo-8-laden cells and incubated at 37° C./5% CO2 for 10 minutes. The FP receptor is activated by adding 20 μl of 3 nM (final concentration) PGF2α in calcium-free Tyrode/2 mM CaCl2/0.04% Brilliant black, and the calcium flux is determined by measuring the fluorescence at ex. 470 nm/[…].
Table 1 below lists the IC50 values from this assay for individual working examples of the invention (some as mean values from multiple independent individual determinations): […]

[1] = eliminated renally; cited from earlier work
[2] = unstable molecule, rearranged enzymatically in lung, liver and kidney to 15-ketodihydro-PGF2α; cited from earlier work

human FP receptor, sequence (P43088 whole entry): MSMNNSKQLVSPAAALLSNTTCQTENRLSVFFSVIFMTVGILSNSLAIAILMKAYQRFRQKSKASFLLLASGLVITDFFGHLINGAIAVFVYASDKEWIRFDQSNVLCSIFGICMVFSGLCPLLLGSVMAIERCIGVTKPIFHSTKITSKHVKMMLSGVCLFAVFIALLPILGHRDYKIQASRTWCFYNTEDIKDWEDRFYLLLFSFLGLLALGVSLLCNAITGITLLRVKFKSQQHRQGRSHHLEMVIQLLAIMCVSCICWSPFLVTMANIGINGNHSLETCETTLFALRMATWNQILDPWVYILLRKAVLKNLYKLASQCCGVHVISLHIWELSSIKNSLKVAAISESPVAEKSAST

IC50 (human FP receptor): 440 nM
Compound: C=Cc1c(-c2ccccc2)nc2ccc(Br)cc2c1C(=O)NC12CCC(C(=O)O)(CC1)CC2 [Example 67, 4-{[(6-Bromo-2-phenyl-3-vinylquinolin-4-yl)carbonyl]amino}bicyclo[2.2.2]octane-1-carboxylic acid]

Compound: Bleomycin
half-life [1]: about 3 hours

Compound: Prostaglandin F2alpha [PGF2α]
t1/2 [2]: < 1 min
